Fold induction and IC50 data for 15 molecules are collected here from US20220324835A1 (Nurix Therapeutics, Inc., priority 2018, published 2022).

Some results are limits rather than exact numbers.

Assay [1] relates to T-cell. The assay can be described thus: IL-2 secretion from T-cells co-stimulated with anti-CD3 and anti-CD28 antibody (Biological Example 2). It counts as cell-based, human. The following applies: Homo sapiens, T-cell, fold change over baseline, primary human total T-cells, read-out: IL-2 secretion Anti-CD3/Anti-CD28 stimulation; for fold induction at 0.3 µM: 0.3 μM Cbl-b inhibitor; for fold induction at 1 µM: 1 μM Cbl-b inhibitor; for fold induction at 4 µM: 4 μM Cbl-b inhibitor. In outline: (§1)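 No assay protocol given; T-cells stimulated with anti-CD3 alone or anti-CD3 plus anti-CD28, with or without Cbl-b inhibitor. Activation read as IL-2 secretion or CD25 surface staining, expressed as fold over baseline from uninhibited cells […].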

A further assay concerns the target Cbl-b (Homo sapiens, UniProt Q13191). As to the kind of experiment: Cbl-b activity assay (Cbl-b inhibition assay), TR-FRET of Cbl-b interaction with UbcH5B-Ub. It counts as biochemical. The following applies: assay buffer with 100 mM NaCl, 60 nM Src kinase; read-out: Cbl-b activity IC50. In outline:
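TR-FRET readout of Cbl-b binding to Bodipy-fluorescein N-terminally labeled Ub conjugated to UbcH5B C85K, measured with compound present. After compound incubation, 60 nM Src kinase with 1 mM ATP and 5 mM MgCl2 (final) was added for 1.5 h, then a further 1 h incubation; asterisked values used 50 mM NaCl buffer and 30 nM Src.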
For orientation: In TR-FRET formats the signal depends on donor and acceptor labels being close together.

The subject of assay [2] is T-cell. As to the kind of experiment: CD25 cell surface staining on T-cells co-stimulated with anti-CD3 and anti-CD28 antibody (Biological Example 2). The following applies: Homo sapiens, T-cell, fold change over baseline, primary human total T-cells, read-out: CD25 staining Anti-CD3/Anti-CD28 stimulation; for fold induction at 0.3 µM: 0.3 μM Cbl-b inhibitor; for fold induction at 1 µM: 1 μM Cbl-b inhibitor; for fold induction at 4 µM: 4 μM Cbl-b inhibitor. It counts as cell-based, human. In outline:
as §1

Chain of Cbl-b (Q13191 36-427): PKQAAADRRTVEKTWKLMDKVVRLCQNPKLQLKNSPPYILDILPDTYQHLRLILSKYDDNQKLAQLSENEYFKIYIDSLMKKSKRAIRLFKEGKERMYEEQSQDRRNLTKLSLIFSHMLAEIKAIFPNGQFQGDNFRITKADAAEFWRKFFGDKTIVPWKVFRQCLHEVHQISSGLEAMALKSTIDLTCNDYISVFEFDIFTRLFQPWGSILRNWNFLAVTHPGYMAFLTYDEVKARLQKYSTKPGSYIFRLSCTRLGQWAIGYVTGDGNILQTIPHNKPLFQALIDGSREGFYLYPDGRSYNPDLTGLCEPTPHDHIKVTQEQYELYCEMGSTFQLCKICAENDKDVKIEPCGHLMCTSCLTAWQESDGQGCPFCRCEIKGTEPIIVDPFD

As usually defined, the IC50 is the concentration that gives 50% inhibition. As to `C[C@H](Cc1nncn1C)c1cccc(NC(=O)c2cccc(C(F)(F)CO)n2)c1` [Compound 188, (R)-6-(1,1-difluoro-2-hydroxyethyl)-N-(3-(1-(4-methyl-4H-1,2,4-triazol-3-yl)propan-2-yl)phenyl)picolinamide], in the assay with T-cell [1], the fold induction at 0.3 µM is under 1, the fold induction at 1 µM was under 1 and the fold induction at 4 µM is under 1. The 50% inhibitory concentration (IC50) at Cbl-b was 100 to 300 nM. In addition, in the assay on T-cell [2], the fold induction at 0.3 µM lay in the range of 1.01 to 1.3, the fold induction at 1 µM was in the range of 1.31 to 1.5 and the fold induction at 4 µM is over 1.76.
`C[C@H](Cc1nncn1C)c1cccc(NC(=O)c2cncc(C(F)(F)F)n2)c1` [Compound 189, (R)-N-(3-(1-(4-methyl-4H-1,2,4-triazol-3-yl)propan-2-yl)phenyl)-6-(trifluoromethyl)pyrazine-2-carboxamide]: in the assay on T-cell [1], the fold induction at 0.3 µM is 1.01 to 2.5, the fold induction at 1 µM fell in the range of 2.51 to 5 and the fold induction at 4 µM lay in the range of 5 to 7.5. At Cbl-b, the half-inhibitory concentration (IC50) was in the range of 100 to 300 nM. Moreover, in the assay with T-cell [2], the fold induction at 0.3 µM is over 1.76, the fold induction at 1 µM was over 1.76 and the fold induction at 4 µM was over 1.76.
Take `C[C@H](Cc1nncn1C)c1cccc(NC(=O)c2cc(C3(O)COC3)cc(C(F)(F)F)n2)c1` [Compound 190, (R)-4-(3-hydroxyoxetan-3-yl)-N-(3-(1-(4-methyl-4H-1,2,4-triazol-3-yl)propan-2-yl)phenyl)-6-(trifluoromethyl)picolinamide]: in the assay with T-cell [1], the fold induction at 0.3 µM is under 1, the fold induction at 1 µM lay within 1.01 to 2.5 and the fold induction at 4 µM is 5 to 7.5. Moreover, at Cbl-b, the 50% inhibitory concentration (IC50) was 100 to 300 nM. In addition, in the assay on T-cell [2], the fold induction at 0.3 µM is over 1.76, the fold induction at 1 µM was over 1.76 and the fold induction at 4 µM was over 1.76.
On to `C[C@H](Cc1nncn1C)c1cccc(NC(=O)c2cc(S(C)(=O)=O)cc(C3CC3)n2)c1` [Compound 198, 6-cyclopropyl-N-[3-[(1R)-1-methyl-2-(4-methyl-1,2,4-triazol-3-yl)ethyl]phenyl]-4-methylsulfonyl-pyridine-2-carboxamide], for which, in the assay on T-cell [1], the fold induction at 0.3 µM is 1.01 to 2.5, the fold induction at 1 µM was in the range of 1.01 to 2.5 and the fold induction at 4 µM lay in the range of 1.01 to 2.5. Besides, the IC50 on Cbl-b lay in the range of 100 to 300 nM. Further, in the assay on T-cell [2], the fold induction at 0.3 µM was 1.01 to 1.3, the fold induction at 1 µM lay in the range of 1.01 to 1.3 and the fold induction at 4 µM was under 1.
For the molecule `C[C@H](Cc1nncn1C)c1cccc(NC(=O)c2cc(S(N)(=O)=O)cc(C(F)(F)F)n2)c1` [Compound 200, (R)-N-(3-(1-(4-methyl-4H-1,2,4-triazol-3-yl)propan-2-yl)phenyl)-4-sulfamoyl-6-(trifluoromethyl)picolinamide], in the assay with T-cell [1], the fold induction at 0.3 µM was under 1, the fold induction at 1 µM was under 1 and the fold induction at 4 µM lay in the range of 1.01 to 2.5. Besides, at Cbl-b, the IC50 fell in the range of 100 to 300 nM. For the same molecule, in the assay with T-cell [2], the fold induction at 0.3 µM fell in the range of 1.01 to 1.3, the fold induction at 1 µM lay within 1.01 to 1.3 and the fold induction at 4 µM fell in the range of 1.01 to 1.3.
For the molecule `CNS(=O)(=O)c1cc(C(=O)Nc2cccc([C@H](C)Cc3nncn3C)c2)nc(C(F)(F)F)c1` [Compound 201, (R)-N-(3-(1-(4-methyl-4H-1,2,4-triazol-3-yl)propan-2-yl)phenyl)-4-(N-methylsulfamoyl)-6-(trifluoromethyl)picolinamide], in the assay on T-cell [1], the fold induction at 0.3 µM was 1.01 to 2.5, the fold induction at 1 µM fell in the range of 1.01 to 2.5 and the fold induction at 4 µM was under 1. The IC50 on Cbl-b fell in the range of 100 to 300 nM. Besides, in the assay on T-cell [2], the fold induction at 0.3 µM was 1.01 to 1.3, the fold induction at 1 µM fell in the range of 1.01 to 1.3 and the fold induction at 4 µM lay in the range of 1.01 to 1.3.
Turning to `C[C@H](Cc1nncn1C)c1cccc(NC(=O)c2cc(O[C@H]3CC[C@@H](O)C3)ccn2)c1` [Compound 206, 4-((1S,3R)-3-hydroxycyclopentyloxy)-N-(3-((R)-1-(4-methyl-4H-1,2,4-triazol-3-yl)propan-2-yl)phenyl)picolinamide], in the assay with T-cell [1], the fold induction at 0.3 µM was 1.01 to 2.5, the fold induction at 1 µM is 1.01 to 2.5 and the fold induction at 4 µM fell in the range of 2.51 to 5. The half-maximal inhibitory concentration (IC50) on Cbl-b was 301 to 1000 nM. In addition, in the assay on T-cell [2], the fold induction at 0.3 µM fell in the range of 1.01 to 1.3, the fold induction at 1 µM is 1.01 to 1.3 and the fold induction at 4 µM fell in the range of 1.01 to 1.3.
`Cc1ccc(C(=O)Nc2cccc([C@H](C)Cc3nnc[nH]3)c2)nc1C1CC1` [Compound 212, (R)-N-(3-(1-(4H-1,2,4-triazol-3-yl)propan-2-yl)phenyl)-6-cyclopropyl-5-methylpicolinamide]: in the assay on T-cell [1], the fold induction at 0.3 µM was 1.01 to 2.5, the fold induction at 1 µM lay in the range of 1.01 to 2.5 and the fold induction at 4 µM lay within 1.01 to 2.5. Also, the IC50 at Cbl-b lay in the range of 301 to 1000 nM. In addition, in the assay on T-cell [2], the fold induction at 0.3 µM was in the range of 1.51 to 1.75, the fold induction at 1 µM fell in the range of 1.51 to 1.75 and the fold induction at 4 µM is over 1.76.
Take `Cc1conc1C[C@@H](C)c1cccc(NC(=O)c2ccnc(C(F)(F)F)n2)c1` [Compound 213a, (R)-N-(3-(1-(4-methylisoxazol-3-yl)propan-2-yl)phenyl)-2-(trifluoromethyl)pyrimidine-4-carboxamide]: in the assay on T-cell [1], the fold induction at 0.3 µM fell in the range of 1.01 to 2.5, the fold induction at 1 µM is 1.01 to 2.5 and the fold induction at 4 µM was 2.51 to 5. In addition, the IC50 on Cbl-b fell in the range of 100 to 300 nM. Also, in the assay on T-cell [2], the fold induction at 0.3 µM was in the range of 1.01 to 1.3, the fold induction at 1 µM fell in the range of 1.01 to 1.3 and the fold induction at 4 µM lay within 1.01 to 1.3.
Turning to `C[C@H](Cc1nncn1C)c1cccc(NC(=O)c2cc(C(=O)N3CC[C@](C)(O)C3)ccn2)c1` [Compound 222, 4-((S)-3-hydroxy-3-methylpyrrolidine-1-carbonyl)-N-(3-((R)-1-(4-methyl-4H-1,2,4-triazol-3-yl)propan-2-yl)phenyl)picolinamide], in the assay with T-cell [1], the fold induction at 0.3 µM is under 1, the fold induction at 1 µM is under 1 and the fold induction at 4 µM is under 1. Moreover, the 50% inhibitory concentration (IC50) on Cbl-b was in the range of 301 to 1000 nM. In addition, in the assay on T-cell [2], the fold induction at 0.3 µM is 1.51 to 1.75, the fold induction at 1 µM lay within 1.31 to 1.5 and the fold induction at 4 µM was in the range of 1.51 to 1.75.
Regarding `C[C@H](Cc1nncn1C)c1cccc(NC(=O)c2cc(C(=O)N3C[C@@H](O)C[C@H]3C)ccn2)c1` [Compound 224, 4-((2R,4S)-4-hydroxy-2-methylpyrrolidine-1-carbonyl)-N-(3-((R)-1-(4-methyl-4H-1,2,4-triazol-3-yl)propan-2-yl)phenyl)picolinamide], in the assay with T-cell [1], the fold induction at 0.3 µM is under 1, the fold induction at 1 µM is under 1 and the fold induction at 4 µM is under 1. In addition, on Cbl-b, the concentration for half-maximal inhibition (IC50) lay in the range of 100 to 300 nM. Further, in the assay with T-cell [2], the fold induction at 0.3 µM lay in the range of 1.01 to 1.3, the fold induction at 1 µM was 1.01 to 1.3 and the fold induction at 4 µM fell in the range of 1.51 to 1.75.
As for `C[C@H](Cc1nncn1C)c1cccc(NC(=O)c2cc(C(=O)N3C[C@@H](O)[C@H](F)C3)ccn2)c1` [Compound 240, 4-((3R,4R)-3-fluoro-4-hydroxypyrrolidine-1-carbonyl)-N-(3-((K)-1-(4-methyl-4H-1,2,4-triazol-3-yl)propan-2-yl)phenyl)picolinamide], in the assay with T-cell [1], the fold induction at 0.3 µM is under 1, the fold induction at 1 µM lay within 1.01 to 2.5 and the fold induction at 4 µM was 2.51 to 5. In addition, on Cbl-b, the IC50 was in the range of 100 to 300 nM. In the assay with T-cell [2], the fold induction at 0.3 µM is under 1, the fold induction at 1 µM lay in the range of 1.01 to 1.3 and the fold induction at 4 µM lay in the range of 1.31 to 1.5.
For the molecule `C[C@H](Cc1nncn1C)c1cccc(NC(=O)c2cc(C(=O)N3CC(O)C(F)(F)C3)ccn2)c1` (stereo partly drawn) [Compound 243, 4-(3,3-difluoro-4-hydroxypyrrolidine-1-carbonyl)-N-[3-[(2R)-1-(4-methyl-4H-1,2,4-triazol-3-yl)propan-2-yl]phenyl]pyridine-2-carboxamide], in the assay on T-cell [1], the fold induction at 0.3 µM was under 1, the fold induction at 1 µM is under 1 and the fold induction at 4 µM fell in the range of 2.51 to 5. Moreover, the IC50 on Cbl-b lay within 301 to 1000 nM. In the assay with T-cell [2], the fold induction at 0.3 µM is under 1, the fold induction at 1 µM is under 1 and the fold induction at 4 µM fell in the range of 1.31 to 1.5.
For the molecule `CCn1cnnc1C[C@@H](C)c1cccc(NC(=O)c2cc(C(=O)N3C[C@@H](O)C[C@H]3C)ccn2)c1` [Compound 251, N-(3-((R)-1-(4-ethyl-4H-1,2,4-triazol-3-yl)propan-2-yl)phenyl)-4-((2R,4S)-4-hydroxy-2-methylpyrrolidine-1-carbonyl)picolinamide], in the assay with T-cell [1], the fold induction at 0.3 µM was under 1, the fold induction at 1 µM is under 1 and the fold induction at 4 µM was in the range of 1.01 to 2.5. Also, on Cbl-b, the IC50 lay in the range of 301 to 1000 nM. In the assay on T-cell [2], the fold induction at 0.3 µM lay in the range of 1.01 to 1.3, the fold induction at 1 µM was 1.01 to 1.3 and the fold induction at 4 µM fell in the range of 1.01 to 1.3.
Consider `C[C@H](Cc1nncn1C)c1cccc(N2Cc3c(Br)cccc3C2=O)c1` [Compound 256, (R)-4-bromo-2-(3-(1-(4-methyl-4H-1,2,4-triazol-3-yl)propan-2-yl)phenyl)isoindolin-1-one], for which, in the assay on T-cell [1], the fold induction at 0.3 µM was 2.51 to 5, the fold induction at 1 µM was in the range of 5 to 7.5 and the fold induction at 4 µM is over 7.5. Moreover, at Cbl-b, the half-inhibitory concentration (IC50) was 100 to 300 nM. For the same molecule, in the assay with T-cell [2], the fold induction at 0.3 µM fell in the range of 1.01 to 1.3, the fold induction at 1 µM lay in the range of 1.31 to 1.5 and the fold induction at 4 µM was 1.51 to 1.75.
